Test [1] concerns the target SARS-COV-2 PLpro (Severe acute respiratory syndrome coronavirus 2, UniProt P0DTD1). The class given is biochemical. As to conditions: Example 1; 50 μM; FIG. 2 and Table 2.
Protocol: The enzymatic activity of SARS-COV-2 PLpro obtained above was measured by a colorimetry-based peptide cleavage assay, using the 6-mer peptide substrate, FRLKGG-para-nitroanilide (FG6-pNA) (purity 97% by HPLC; GL Biochem Ltd., Shanghai, China). In the cleavage assay, the 6-mer peptide substrate was cleaved at the Gly-pNA bond to release free pNA, which turned the color of the solution to yellow. The enzymatic activity was determined by continuously monitoring the absorbance at 405 nm (A405) using a 96-well microplate spectrophotometer (Epoch™ 2, Biotek) at 30° C.
An enzyme inhibition assay was performed in a 96-well microplate. Each of the wells of the microplate contained a 50 mM phosphate buffer (pH 7.4). SARS-COV-2 PLPro obtained above (0.9 μM) was added into the respective well to form an enzyme solution. […]
20 μL of FG6-pNA (1.2 mM) described above was added into the test mixture of the respective group to initiate the enzyme reaction. […] The enzymatic activity was determined by continuously monitoring the absorbance at 405 nm (A405) using a 96-well microplate spectrophotometer (Epoch™ 2, Biotek). The reaction rate was calculated accordingly, wherein the reaction rate is the slope of the absorbance A405 versus time (seconds) for a total reaction time of 300 seconds.
The inhibition percentage was calculated using the following equation: […]
In test [2] the test system is SKOV-3 cancer cell line. The experiment in a line: In vitro cytotoxicity, Alamar blue cell viability, SK-OV-3. The class given is cell-based. The conditions noted are these: 24 hr. On the technique in general: Resazurin is reduced to fluorescent resorufin, in cell work by metabolically active cells.
Test [3] relates to Huh-7 cancer cell line. The experiment in a line: In vitro cytotoxicity, Alamar blue cell viability, Huh-7. The class given is cell-based. As to conditions: 24 hr.
Test [4] deals with HCT-116 cancer cell line. The experiment in a line: In vitro cytotoxicity, Alamar blue cell viability, HCT-116. The test is classed as cell-based. As to conditions: 24 hr.
The subject of test [5] is AsPC-1 cancer cell line. As to the kind of experiment: In vitro cytotoxicity, Alamar blue cell viability, AsPC-1. The class given is cell-based. The conditions noted are these: 24 hr.
For test [6], the system named is MDA-MB-231 cancer cell line. As to the kind of experiment: In vitro cytotoxicity, Alamar blue cell viability, MDA-MB-231. The class given is cell-based. The conditions noted are these: 24 hr.
Test [7] deals with H460 cancer cell line. The experiment in a line: In vitro cytotoxicity, Alamar blue cell viability, NCI-H460. The test is classed as cell-based. The conditions noted are these: 24 hr.
Test [8] deals with A549 cancer cell line. As to the kind of experiment: In vitro cytotoxicity, Alamar blue cell viability, A549. The conditions noted are these: 24 hr. The class given is cell-based.
Test [9] relates to SARS-COV-2. As to conditions: Example 2; intranasal 0.35 mg/kg twice daily, 3-day treatment; FIG. 3.
Description: Golden Syrian hamsters (aged 5-6 weeks old and having an average weight of about 100 g) were obtained from the National Laboratory Animal Center (Taipei, Taiwan). The hamsters were housed in an animal room under specific-pathogen-free (SPF) conditions commonly applied in the art. Furthermore, water and feed were provided ad libitum for all the hamsters. All the experiments involving the hamsters were consigned to and reviewed and approved by the Institutional Animal Care and Use Committee (IACUC) of Academia Sinica (Taiwan).
The hamsters were infected with SARS-COV-2 (obtained from P3 Lab, the Genomics Research Center, Academia Sinica; WuHan wild type) in phosphate buffered saline (PBS) through intranasal inoculation at 1×10^4 plaque-forming units (PFU) on 12:00 PM so as to establish a SARS-CoV-2 animal model. […]
After the 3-day treatment, the hamsters were sacrificed, and the lungs thereof were collected for live viral load measurement by TCID50 assay in Vero E6 cells. The virus titer was determined in terms of the 50% tissue culture infectious dose (TCID50) using the Reed-Muench method. […]

Usually IC50 stands for the concentration needed to halve the response being measured. High values mean lower potency, low ones higher potency. Take `CC1=C(/C=C/C(C)=C/C=C/C(C)=C\C(=O)NCCCO[C@@H]2O[C@H](CO)[C@H](O)[C@H](O)[C@H]2O)C(C)(C)CCC1` [Galactose-modified isotretinoin, (2Z,4E,6E,8E)-3,7-Dimethyl-N-(3-(((2R,3R,4S,5R,6R)-3,4,5-Trihydroxy-6-(Hydroxymethyl)Tetrahydro-2H-Pyran-2-Yl)Oxy) Propyl)-9-(2,6,6-Trimethylcyclohex-1-En-1-Yl) Nona-2,4,6,8-Tetraenamide]: in [1], the “inhibition rate compared with Comparative_1 (isotretinoin only)” value was “significantly higher”. In addition, the IC50 in test [2] (Homo sapiens, SK-OV-3, Ovarian Cancer) came to 13.8 µM; in test [3] (Homo sapiens, Huh-7, Liver Cancer), 77.5 µM; in [4] (Homo sapiens, HCT-116, Colon Cancer), 123 µM; in [5] (Homo sapiens, ASPC1, AsPC-1, Pancreatic Cancer), 23 µM; in test [6] (Homo sapiens, MDA-MB-231, Breast Cancer) it was 116 µM; in test [7] (Homo sapiens, NCI-H460, Non-small Cell Lung Cancer), 22.9 µM. In addition, the IC50 in test [8] (Homo sapiens, A549, Non-small Cell Lung Cancer) was determined as 21.9 µM. For the same molecule, the cell viability result in test [2] (SKOV-3, FIG. 8) was “significantly reduce”; in test [3] (Huh-7, FIG. 7), “significantly reduce”; in test [4] (HCT-116, FIG. 6), “significantly reduce”; in [5] (AsPC-1, FIG. 4), “significantly reduce”; in test [6] (MDA-MB-231, FIG. 5), “significantly reduce”; in [7] (H460, FIG. 10) it was “significantly reduce”. Further, the cell viability result in test [8] (A549, FIG. 9) is on record as “significantly reduce”. For the same molecule, the “TCID50 (lung virus titer) compared with isotretinoin and liposome-encapsulated isotretinoin” value in test [9] was “significantly lower”.

Values taken from patent publication US20240423942A1, “PHARMACEUTICAL COMPOSITION INCLUDING RETINOIC ACID AND CARBOHYDRATE AND USE THEREOF” (Mastery Biotech CO., LTD., priority 2022, published 2024).
